Reference: patent US20010006673A1, “LUTEIN- CONTAINING SUPPLEMENT AND PROCESS FOR ENHANCING IMMUNE RESPONSE IN ANIMALS” (priority 1998, published 2001)

Assays:
cats = experiment: Delayed type hypersensitivity (DTH) response in cats; format: in vivo, Tabby cats; conditions: for DTH response to vaccine: week 6, 72 h post-injection
[1] = tested on: Crandell feline kidney fibroblast; experiment: NK cytotoxicity assay, cats; format: in vivo, Tabby cats
Experimental: The Crandell feline kidney fibroblast was used as the target cell. Target cells were resuspended to 2×10^5 cells/mL and triplicate 100 μL aliquots were pipetted into a 96-well U-bottom plate (Costar, Cambridge, Mass.) and cells allowed to adhere. Isolated PBMC (effector cells) were then added to the target cells to achieve effector:target cell (E:T) ratios of 25:1, 12.5:1 and 6.25:1. The cell mixture was incubated for 8 hours after which 100 μL Rose Bengal (2.5 g/L in PBS; Sigma, St. Louis, Mo.) were added and incubated at room temperature for 5 minutes. Optical density was measured at 550 nm using an ELISA plate reader. The percentage of NK-specific lysis was calculated as follows:
Specific cytotoxicity (%)=100×{1−[(OD of target cells and effector cells−OD of effector cells)/(OD of target cells)]}

[2] = parameters: species or system Tabby cats; conditions: in vivo
Experimental: Blood was collected by jugular venipuncture into heparinized evacuated tubes on weeks 0, 2, 4, 8 and 12 and aliquots used for HPLC analysis and for assessing immune responses.
Plasma lutein, retinol and α-tocopherol were analyzed by reverse phase HPLC. Briefly, plasma protein was precipitated with an equal volume of ethanol containing 0.1% butylated hydroxytoluene (BHT) (Aldrich Chemical Co., Milwaukee, Wis.). The mixture was extracted with 5 mi of a 1:1 mixture of petroleum ether:anhydrous diethyl ether and the dried residue resuspended in mobile phase. The mobile phase was a mixture of acetonitrile, methanol and chloroform (47:47:6, v/v/v). The internal standard used was retinyl acetate (Sigma Chem. Co., St. Louis, Mo.). Samples were eluted on a 5 μm C18 reverse phase column (3.9×150 mm; Resolve, Millipore Corp., Milford Mass.) with a flow rate of 1.0 ml/min. The identity of the eluted compounds was verified by comparing their absorption spectra with those of standard compounds.

[3] = Body weight and food intake of cats fed lutein; format: in vivo, Tabby cats
Experimental: Fifty-six female Tabby cats (10 months old) were randomly assigned to be fed 0, 1, 5, or 10 mg lutein daily for 12 weeks. The lutein contained 76.66% lutein and 5.23% zeaxanthin and was incorporated into the basal diet (see Table 3) to a final concentration of 250 mg lutein/kg of diet.
Prior to being fed to the cats, the lutein-containing diet was mixed with additional basal diet to achieve the desired lutein concentration. The final diets were mixed weekly and stored at −20° C. in sealed containers undernitrogen gas. […] Food and water were available ad libitum. Cats were housed (7 cats/pen; 1.5×5.0 m) in a temperature (20 to 22° C.) and light (14 h light) controlled facility.

IgG = experiment: Serum IgG by single radial immunodiffusion, cats; format: in vivo, Tabby cats
Experimental: Serum IgG concentration was determined by single radial immunodiffusion (SRID). Goat antiserum to cat IgG (15%, whole molecule) (Sigma, St. Louis, Mo.) was incorporated into agarose (10 g/L in PBS; Sigma, St. Louis, Mo.). The loading volume for the test serum and standard was 5 μL and the plates were incubated for 24 hours in a humidified chamber. Ring diameters were measured using a SRID reader (Transidyne General Corp., Ann Arbor, Mich.).

[4] = tested on: lymphocyte subsets (CD5, CD4, CD8, MHC class II, CD21); experiment: Lymphocyte subsets by flow cytometry, dogs; format: in vivo, Beagle dogs
Experimental: Blood leukocytes were separated using Histopaque-1119 (Sigma, St. Louis, Mo.). Cells were washed three times with phosphate-buffered saline (PBS, pH 7.4) and contaminating erythrocytes were lysed in NH4CI (8.4 g/L). Lymphocyte subsets were determined by flow cytometry (FACScan, Becton Dickinson, San Jose, Calif.). Isolated mononuclear cells were resuspended to 1×10^7 cells/mL in PBS supplemented with 2% gamma globulin-free serum, 5% goat serum and 0.2 g/L sodium azide. For immunofluorescence analysis, a total of 5×10^5 cells were incubated for 30 minutes on ice with optimal concentrations of mouse anti-canine monoclonal antibody (mAb). The mAb used were specific for the following lymphocyte subsets: total T cells (anti-CD5), T-helper cells (anti-CD4), T-cytotoxic/suppressor cells (anti-CD8), lymphocytes expressing major histocompatability complex (MHQ class II antigens (anti-MHC class II), and B cells (anti-CD21). Cells were then washed three times and incubated with a secondary antibody, fluorescein isothiocyanate (FITC)-conjugated goat F(ab′)2 anti-mouse IgG+IgM (H+L) (Caltag, Burlingame, Calif.), for 30 minutes on ice to visualize the bound mAb. Stained cells were fixed in 4% paraformaldehyde in preparation for acquisition. Appropriate negative controls were included to correct for background fluorescence. Data were expressed as the percentage of positive-staining cells corrected for cells stained nonspecifically with the secondary antibody.

CC1=C[C@H](O)CC(C)(C)[C@H]1/C=C/C(C)=C/C=C/C(C)=C/C=C/C=C(C)/C=C/C=C(C)/C=C/C1=C(C)C[C@@H](O)CC1(C)C [lutein]
DTH response to vaccine (cats; cats fed 5 or 10 mg lutein): significantly higher | DTH response to Con A (cats; cats, week 6): no significant dietary effect | DTH response to vaccine (cats; cats, all doses): significant dose-related | DTH response to Con A and vaccine (cats; cats, week 12): no significant treatment difference | NK cell cytotoxicity ([1]; cats fed 1 mg lutein, week 12 (E:T of 6.25:1) and 8 (E:T of 25:1)): significantly higher | NK cell cytotoxic activity ([1]; cats fed 10 mg lutein, week 8, significant with E:T ratios of 6.25:1 and 25:1): higher | NK cell cytotoxicity ([1]; cats, E:T ratio of 12.5:1): No significant treatment differences | Plasma lutein [2]: increased in a dose-dependent manner | Food intake among treatments [3]: not significantly different | Body weight average ([3]; across all diets and periods): 1.41 ± 0.04 kg | Average daily food intake ([3]; across the study period): 83.2 g | Effect on changes in body weight ([3]; during the experimental period): did not significantly affect | Plasma IgG vs unsupplemented animals (IgG; cats fed 10 mg lutein, week 12): significantly higher | Concentrations of plasma IgG (IgG; cats fed 1 or 10 mg lutein, week 8): significantly higher | CD21+ B cell population ([4]; dogs): did not significantly influence | % CD8+ T cytotoxic cells vs control ([4]; dogs fed 20 mg lutein, week 8): significantly higher | % MHC class II cell populations vs unsupplemented dogs ([4]; dogs fed 20 mg lutein, week 8 and 12): elevated | % CD4+ cells ([4]; dogs fed 5 and 10 mg lutein, week 12): higher | CD8+ population ([4]; dogs, week 12): not influenced | Percentages of CD5+ cells vs unsupplemented controls ([4]; dogs, weeks 4 and 8, statistically significant with 5 and 20 mg lutein): higher
